Laboratory results taken from ChEMBL document CHEMBL5230135, “Peptide Ligands Specifically Targeting HER2 Receptor and the Role Played by a Synthetic Model System of the Receptor Extracellular Domain: Hypothesized Future Perspectives” (J Med Chem, 2020).
Where a SMILES comes first, the peptide text is derived from it.

Legend:
[1] = biological target: T1, Receptor tyrosine-protein kinase erbB-2 (Homo sapiens, UniProt P04626); assay: Binding affinity to HER2 in human BT-474 cells assessed as dissociation constant by measuring high affinity ligand binding site by LigandTracer technique; type: cell-based
T1 sequence (P04626 whole entry): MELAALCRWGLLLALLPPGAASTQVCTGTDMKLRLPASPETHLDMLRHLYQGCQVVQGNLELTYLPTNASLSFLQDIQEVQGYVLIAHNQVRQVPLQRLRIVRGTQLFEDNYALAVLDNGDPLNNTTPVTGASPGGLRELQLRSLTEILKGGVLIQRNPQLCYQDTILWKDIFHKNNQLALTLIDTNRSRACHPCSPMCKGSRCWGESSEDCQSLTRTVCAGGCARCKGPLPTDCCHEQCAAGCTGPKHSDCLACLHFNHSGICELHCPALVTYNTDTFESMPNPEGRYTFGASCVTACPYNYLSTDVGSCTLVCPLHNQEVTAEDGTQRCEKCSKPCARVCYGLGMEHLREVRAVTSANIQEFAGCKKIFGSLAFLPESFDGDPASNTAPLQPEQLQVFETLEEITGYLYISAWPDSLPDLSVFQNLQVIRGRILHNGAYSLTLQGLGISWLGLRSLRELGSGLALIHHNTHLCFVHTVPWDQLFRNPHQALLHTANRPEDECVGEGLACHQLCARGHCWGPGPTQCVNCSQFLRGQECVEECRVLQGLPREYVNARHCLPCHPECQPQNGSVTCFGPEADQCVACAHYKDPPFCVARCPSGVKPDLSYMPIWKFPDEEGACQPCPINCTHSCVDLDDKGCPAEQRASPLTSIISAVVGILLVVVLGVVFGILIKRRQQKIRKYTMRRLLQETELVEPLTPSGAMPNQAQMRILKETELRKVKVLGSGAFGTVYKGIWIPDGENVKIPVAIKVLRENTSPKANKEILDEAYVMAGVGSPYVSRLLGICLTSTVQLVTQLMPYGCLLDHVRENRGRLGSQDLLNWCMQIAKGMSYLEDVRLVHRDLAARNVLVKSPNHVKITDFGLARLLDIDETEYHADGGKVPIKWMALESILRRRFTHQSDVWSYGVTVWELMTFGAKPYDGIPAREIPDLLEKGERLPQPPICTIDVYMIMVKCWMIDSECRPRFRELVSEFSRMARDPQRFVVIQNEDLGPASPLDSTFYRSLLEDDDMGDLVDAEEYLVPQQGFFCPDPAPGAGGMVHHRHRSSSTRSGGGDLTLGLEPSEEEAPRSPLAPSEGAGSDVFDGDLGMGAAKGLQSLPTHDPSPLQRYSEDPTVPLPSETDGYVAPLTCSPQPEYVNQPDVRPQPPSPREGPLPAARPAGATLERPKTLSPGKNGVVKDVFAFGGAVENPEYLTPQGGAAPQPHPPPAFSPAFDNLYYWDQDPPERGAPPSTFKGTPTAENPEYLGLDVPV

[2] = biological target: T1, Receptor tyrosine-protein kinase erbB-2; assay: Binding affinity to HER2 in human BT474 cells assessed as dissociation constant by measuring low affinity ligand binding site by LigandTracer technique; type: cell-based, BT-474
[3] = Biodistribution in lung of BALB/c nu/nu mouse measured in organ after 1 hr; type: ADME, organism-based; details: in vivo
[4] = Biodistribution in liver of BALB/c nu/nu mouse measured in organ after 1 hr; type: ADME, organism-based; details: in vivo
[5] = Biodistribution in spleen of BALB/c nu/nu mouse measured in organ after 1 hr; type: ADME, organism-based; details: in vivo
[6] = Biodistribution in stomach of BALB/c nu/nu mouse measured in organ after 1 hr; type: ADME, organism-based; details: in vivo
[7] = Biodistribution in pancreas of BALB/c nu/nu mouse measured in organ after 1 hr; type: ADME, organism-based; details: in vivo
[8] = Biodistribution in brain of BALB/c nu/nu mouse measured in organ after 1 hr; type: ADME, organism-based; details: in vivo
[9] = Biodistribution in kidney of BALB/c nu/nu mouse measured in organ after 1 hr; type: ADME, organism-based; details: in vivo
[10] = Biodistribution in muscle of BALB/c nu/nu mouse measured in organ after 1 hr; type: ADME, organism-based; details: in vivo
[11] = Biodistribution in bone of BALB/c nu/nu mouse measured in organ after 1 hr; type: ADME, organism-based, Bone element; details: in vivo
[12] = Biodistribution in Gastrointestinal tract of BALB/c nu/nu mouse measured in organ after 1 hr; type: ADME, organism-based; details: in vivo
[13] = Biodistribution in Carcass of BALB/c nu/nu mouse measured in organ after 1 hr; type: ADME, organism-based; details: in vivo

## CC(C)[C@H](NC(=O)[C@H](C)NC(=O)[C@@H](NC(=O)[C@H](CC(N)=O)NC(=O)[C@@H](NC(=O)[C@H](CC(=O)O)NC(=O)[C@H](CCC(N)=O)NC(=O)CN(CCN(CCN(CC(=O)O)CC(=O)O)CC(=O)O)CC(=O)O)C(C)C)[C@@H](C)O)C(=O)N[C@@H](C)C(=O)N[C@@H](Cc1c[nH]c2ccccc12)C(N)=O (HELM PEPTIDE1{[O=C(O)CN(CCN(CC(=O)O)CC(=O)O)CCN(CC(=O)O)CC(=O)[*:2]].Q.D.V.N.T.A.V.A.W.[am]}$$$$V2.0)
[1]
  Kd: 4.9 nM
[2]
  Kd: 103 nM
[3]
  Drug uptake: 0.06 %ID
[4]
  Drug uptake: 0.47 %ID
[5]
  Drug uptake: 0.02 %ID
[6]
  Drug uptake: 0.05 %ID
[7]
  Drug uptake: 0.01 %ID
[8]
  Drug uptake: 0 %ID
[9]
  Drug uptake: 2 %ID
[10]
  Drug uptake: 0.04 %ID
[11]
  Drug uptake: 0.01 %ID
[12]
  Drug uptake: 0.83 %ID
[13]
  Drug uptake: 3.47 %ID
